From publication PMC6331991, “Anemarrhena asphodeloides Non-Steroidal Saponin Components Alter the Pharmacokinetic Profile of Its Steroidal Saponins in Rat” (Molecules, 2015)
Like-named read-outs stand apart in the source and are kept apart here.

Tests used:
[1] = Stability of analytes in rat plasma QC samples (auto-sampler, long-term, freeze-thaw); type: in vitro ADME; settings: n = 6; for Stability, Auto-Sampler for 24 h, Mean: 4 °C; for Stability, Freeze–Thaw Cycles, Mean: three cycles −80 °C to room temperature
Experimental: Stock solutions were separately prepared by dissolving the four accurately weighed standard reference compounds in a mixture of 50% acetonitrile. Then, the four stock solutions were mixed and diluted with 50% acetonitrile to prepare a final mixed standard solution containing 650.00 ng/mL of timosaponin BII, 620.00 ng/mL of anemarsaponin BIII, 485.00 ng/mL of timosaponin AIII, 530.00 ng/mL of timosaponin E1. A series of working solutions were freshly prepared by diluting mixed standard solution with 50% acetonitrile to the appropriate concentration. The internal standard solution of ginsenoside Re was prepared to the concentration of 920 ng/mL in 50% acetonitrile. For the validation of the method, three concentrations of standard solution containing timosaponin BII (5.20, 52.00 and 520 ng/mL), anemarsaponin BIII (4.96, 49.60 and 496.00 ng/mL), timosaponin AIII (3.88, 38.8 and 388 ng/mL), timosaponin E1 (4.24, 42.40 and 424.00 ng/mL) were used for preparing the QC plasma samples. The stability experiments were measured by analyzing replicates (n = 6) of three QC samples during the sample storing and processing procedures. For all stability experiments, freshly prepared stability testing QC samples were evaluated by using freshly prepared standard curve for the measurement. The post-preparation stability was tested by determined of the extracted QC samples stored in the auto-sampler (4 °C) for 24 h. The freeze and thaw stability were determined after three freeze-thaw cycles (−80 °C to room temperature). Long-term stability in rat plasma stored at −80 °C was studied for a period of one month.

[2] = Pharmacokinetic study of four steroidal saponins in rat plasma after oral administration of A. asphodeloides fractions (UPLC-MS/MS); type: in vivo, Sprague-Dawley rats; settings: for AUC(0-t) / Cmax / half-life / Tmax: male, Sprague-Dawley; for AUC(0-t) / Cmax / half-life / Tmax / T1/2: rat plasma, single oral dose, n = 6, mean ± S.D.; for AUC(0-t): read-out: AUC0–t; for Cmax: read-out: Cmax; for half-life: read-out: T1/2 (converted); for Tmax: read-out: Tmax; for shape of plasma concentration-time curve: after oral administration
Experimental: The dried A. asphodeloides were chopped into slices before using. The A. asphodeloides was immersed in water (1:10, w/v) and extracted twice by refluxing for 2 h. After filtration, the supernatant was condensed to a certain volume under reduced pressure, and 95% ethanol was added to the water extract filtrates until the concentration of ethanol was 80%. The precipitate was filtered as the macromolecular fraction (MF), the ethanol supernatant was concentrated under reduced pressure to a certain volume under vacuum and then purified by gradient elution with water, 40% ethanol and 70% ethanol from an AB-8 MARO porous resin column and then the water-eluted fraction was combined with the 40% ethanol-eluted fraction as the small molecule fraction (SF) and the 70% ethanol eluted fraction was the A. asphodeloides saponins extract (ASE). All of the residues were lyophilized and the resulting dry powder was stored at 4 °C before usage. The contents of four steroidal saponins in ASE dry powder were measured quantitatively by the external standard method using the same chromatography conditions as described above. The contents of timosaponin BII, anemarsaponin BIII, timosaponin AIII and timosaponin E1 in ASE were 429.12, 89.81, 59.13 and 41.25 mg/g, respectively.
Frozen plasma samples were unfrozen at room temperature and treated as follows: to each 200 µL plasma sample, 20 µL of IS (920 ng/mL ginsenoside Re) working solution and 600 µL of acetonitrile were added. After vortexing for 2 min and centrifugation at 13,000 rpm at 4 °C for 10 min the supernatant was transferred into a new tube and evaporated to dryness in a rotary evaporator at 39 °C and the residue was reconstituted in 100 µL of 0.1% formic acid–acetonitrile (50:50, v/v), vortexed for 2 min and centrifuged at 13,000 rpm at 4 °C for 10 min. The supernatant was transferred to an autosampler vial and an aliquot of 2 μL was injected onto the UPLC-MS/MS system for analysis.
Male Sprague-Dawley rats (250–280 g) were obtained from the Shanghai Slac Laboratory Animal Co., Ltd. (Shanghai, China). All animals were kept in an environmentally controlled breeding room (temperature: 20–25 °C, humidity: 55%–65%) for 1 week before the experiments started. Animal welfare and experimental procedures were strictly in accordance with the ethical norms of the Nanjing University of Chinese Medicine. All rats were fasted for 12 h with free access to water prior to the experiments, twenty-four rats were divided into four groups and then were given a single dose of ASE, ASE-SF, AS-MF, AS-M-SF. A 40 mg/mL ASE (the amount of MF, SF added to group AS-MF, ASE-SF, AS-M-SF were based on the proportion extracted from A. asphodeloides) aqueous solution in each group was administered orally at a dose of 400 mg/kg, which contained 171.61, 35.92, 23.62, 16.53 mg/kg of timosaponin BII, anemarsaponin BIII, timosaponin AIII, timosaponin E1, respectively.
About 400 μL blood samples were collected from venipuncture before intragastric gavage and at 0.083, 0.25, 0.5, 1, 1.5, 2, 4, 6, 8, 10, 12, 24 h after a single oral administration. The blood samples were immediately transferred to heparinized tubes and centrifuged at 3000 rpm for 10 min, and the supernatant was transferred into 2.0 mL Eppendorf tubes and stored at −80 °C prior to analysis. Blank plasma was obtained from the rat without oral administration and was used to investigate the assay development and validation.
To calculate the pharmacokinetic parameters of analytes in different group, concentrations–time dada were analyzed by DAS 3.2 software (Mathematical Pharmacology Professional Committee of China, Shanghai, China, 2011). Data were measured as the mean ± standard deviation (S.D.) with triplicate measurements. The identification of significances between different groups was executed with Student’s t-test. A p value < 0.05 was considered statistically significant.

[3] = high concentration (388.00–520.00 ng/mL)
[4] = low concentration (3.88–5.20 ng/mL)
[5] = middle concentration (38.80–52.00 ng/mL)
[6] = rat, plasma, po, 400 mg/kg, Group ASE (ASE 400 mg/kg)
[7] = rat, plasma, po, 400 mg/kg, Group ASE-MF (ASE 400 mg/kg plus macromolecular fraction)
[8] = rat, plasma, po, 400 mg/kg, Group ASE-MF
[9] = rat, plasma, po, 400 mg/kg, Group ASE-SF (ASE 400 mg/kg plus small molecule fraction)
[10] = rat, plasma, po, 400 mg/kg, Group ASE-SF
[11] = rat, plasma, po, 400 mg/kg, Group ASE-SF-MF

Compound	Stability, Auto-Sampler for 24 h, Mean [1, 3]	Stability, at −80 °C for 1 Month, Mean [1, 3]	Stability, Freeze–Thaw Cycles, Mean [1, 3]	Stability, Auto-Sampler for 24 h, Mean [1, 4]	Stability, at −80 °C for 1 Month, Mean [1, 4]	Stability, Freeze–Thaw Cycles, Mean [1, 4]	Stability, Auto-Sampler for 24 h, Mean [1, 5]	Stability, at −80 °C for 1 Month, Mean [1, 5]	Stability, Freeze–Thaw Cycles, Mean [1, 5]	AUC(0-t) [2, 6]	Cmax [2, 6]	half-life [2, 6]	Tmax [2, 6]	Cmax [2, 7]	AUC(0-t) [2, 8]	half-life [2, 8]	Tmax [2, 8]	Cmax [2, 9]	half-life [2, 10]	Tmax [2, 10]	further results
C[C@H]1CC[C@@]2(OC1)O[C@H]1C[C@H]3[C@@H]4CC[C@@H]5C[C@@H](O[C@@H]6O[C@H](CO)[C@H](O)[C@H](O)[C@H]6O[C@@H]6O[C@H](CO)[C@@H](O)[C@H](O)[C@H]6O)CC[C@]5(C)[C@H]4CC[C@]3(C)[C@H]1[C@@H]2C [Timosaponin AIII, timosaponin AIII]	96.4%	99.0%	102.8%	100.9%	100.4%	102.2%	97.0%	101.7%	96.2%	644 ± 59 ng·h/mL	65.2 ± 4.16 ng/mL	5.31 ± 3.03 h	5.66 ± 0.81 h	63.6 ± 3.16 ng/mL	688 ± 46.3 ng·h/mL	6.95 ± 6.23 h	4.33 ± 0.81 h	69.8 ± 2.86 ng/mL	8.2 ± 2.74 h	5.33 ± 1.03 h	Cmax ([2]; rat, plasma, po, 400 mg/kg, Group ASE-SF-MF (ASE 400 mg/kg plus small molecule and macromolecular fraction)): 74 ± 6.18 ng/mL; AUC(0-t) [2, 11]: 890 ± 57.2 ng·h/mL; half-life [2, 11]: 8.94 ± 1.24 h; Tmax [2, 11]: 5.66 ± 0.81 h; T1/2 ([2]; Group ASE-SF): significantly increased; shape of plasma concentration-time curve ([2]; rat): single peak
C[C@@H](CC[C@@]1(O)O[C@H]2C[C@H]3[C@@H]4CC[C@@H]5C[C@@H](O[C@@H]6O[C@H](CO)[C@H](O)[C@H](O)[C@H]6O[C@@H]6O[C@H](CO)[C@@H](O)[C@H](O)[C@H]6O)CC[C@]5(C)[C@H]4CC[C@]3(C)[C@H]2[C@@H]1C)CO[C@@H]1O[C@H](CO)[C@@H](O)[C@H](O)[C@H]1O [Timosaponin BII, timosaponin BII]	88.3%	95.4%	91.4%	95.3%	94.7%	98.0%	98.1%	98.2%	95.5%	2040 ± 146 ng·h/mL	271 ± 22.5 ng/mL	3.21 ± 1.17 h	3.75 ± 1.78 h	287 ± 11.9 ng/mL	1980 ± 104 ng·h/mL	3.34 ± 1.19 h	3.41 ± 1.43 h	415 ± 41.8 ng/mL	3.63 ± 1.28 h	5 ± 1.67 h	AUC(0-t) ([2]; 400 mg/kg, Group ASE-SF-MF): 3310 ± 575 ng·h/mL; half-life ([2]; 400 mg/kg, Group ASE-SF-MF): 5.18 ± 1.88 h; Tmax ([2]; 400 mg/kg, Group ASE-SF-MF): 3.17 ± 2.21 h; AUC(0-t) [2, 10]: 3090 ± 628 ng·h/mL; Cmax ([2]; Group ASE-SF-MF (ASE 400 mg/kg plus small molecule and macromolecular fraction)): 400 ± 39.6 ng/mL; T1/2 ([2]; Group ASE-SF): no obvious difference; shape of plasma concentration-time curve ([2]; rat): double peak
